How the values were obtained:
DNBS-induced colitis = DNBS-induced colitis in CD1 mice; assay type: in vivo; conditions: vs vehicle
Description: The 2,4-dinitrobenzene sulfonic acid (DNBS) induced experimental colitis mouse model serves as a model of inflammatory bowel disease. On day 0, CD1 mice were sensitized with DNBS by intra-colinic instillation of 0.1 ml of an ethanolic solution (30%) of DNBS (40 mg/ml). Compound V was administered orally once a day for four consecutive days at 25 mg/kg and 50 mg/kg, starting one hour after sensitization with DNBS. On the fourth day, mice were sacrificed and 8 cm of the distal colon was collected and opened longitudinally for macroscopic evaluation.

PC-3 cells = assay: In vitro PC-3 cell adhesion to extracellular matrix components; assay type: cell-based, human; conditions: different concentrations
Description: An in vitro cell adhesion assay was used to assess the effect of the compounds on cancer cell adhesion. Microtiter 96-well plates were coated for 1 hr at room temperature with […] of adhesive ligands previously diluted to 5 μg/ml for laminin, 10 μg/ml for MATRIGEL™ basement membrane matrix, or 10 μg/ml for collagen in PBS. The wells were blocked with a solution of 1% BSA in PBS (100 μl/well) for 1 hr at 37° C. Subconfluent cultures of PC-3 cells were incubated with a 5 μM solution of calcein-AM for 30 min at 37° C., and then free calcein-AM was washed out (30 min) by incubation of the PC-3 cells in media without calcein-AM. Calcein-AM-labeled cells were trypsinized, washed, and resuspended in adhesion buffer (RPMI-1640, 10% FBS supplemented with 1 mM of MgCl2). Labeled PC-3 cells were preincubated in absence or presence of compounds for 30 min and then a final volume of 100 μl of preincubated cells were allowed to attach at 37° C. in a humidified incubator for 15 min, 30 min, or 60 min at 37° C. Nonattached cells were removed by two washes with PBS and attached cells were lysed with 100 μl of a 1% Triton X-100 solution in PBS. Plates were read on a Tecan GENios Plus fluorescent reader with an excitation wavelength of 485 nm and an emission wavelength of 530 nm. The number of attached cells was calculated based upon standard curves. Nonspecific cell attachment (attachment to wells coated with BSA) was always less than 5%.

DA-3 breast tumor = assay: Primary DA-3 breast tumor in mice; assay type: in vivo; conditions: FIG. 4B; compound I IV 50 mg/kg, alone or with cyclophosphamide; up to day 35
NZB×NZW mice = assay: Systemic lupus erythematosus model, NZB×NZW mice; assay type: in vivo; conditions: IV once a week from week 10 to week 46; FIG. 12
Description: New Zealand mice of the F1 hybrid cross NZB×NZW develop most of the autoimmune abnormalities seen in human SLE and die from SLE-like immune complex (IC)-mediated glomerulonephritis. The mice develop high titers of anti-DNA (double-strand and single-strand) and nuclear extract (NE) antibodies, as well as SLE-related clinical manifestations including leukopenia, thrombocytopenia, proteinuria, and glomerulonephritis. These mice develop anti-DNA antibodies after the age of three months, with a peak of anti-DNA antibody response occurring at seven months. Subsequently, the serum concentration of anti-DNA antibodies declines, presumably as a consequence of progressive uremia. The first serological manifestations of the disease occurs at about 150 days (i.e., five months). Their survival is evaluated at approximately 250 days.
Intravenous administration of compound or vehicle was undertaken once a week from week 10 to week 46.

Row | Compound | DNBS-induced macroscopic damage area of the colon mucosal tissue (DNBS-induced colitis; oral 25 mg/kg and 50 mg/kg, FIG. 22) | body weight (DNBS-induced colitis; oral once a day for four days, 25 mg/kg and 50 mg/kg) | PC-3 cell adhesion to laminin (PC-3 cells; FIG. 1A) | PC-3 cell adhesion to MATRIGEL basement membrane matrix (PC-3 cells; FIG. 1B) | PC-3 cell adhesion to collagen (PC-3 cells; FIG. 1C) | effect on DA-3 tumor growth (DA-3 breast tumor) | mortality of NZB×NZW mice (NZB×NZW mice)
1 | NCCCCCNc1nc(NCCc2ccc(O)cc2)nc(Nc2ccc(F)cc2)n1 [Compound V] | strong and significant decrease | weak but significant increase of body weight | inhibits PC-3 cells adhesion in a dose dependent fashion | inhibits PC-3 cells adhesion in a dose dependent fashion | inhibits PC-3 cells adhesion in a dose dependent fashion |  | 
2 | NCCCCCNc1nc(NCCc2ccc(O)cc2)nc(Nc2cccc(F)c2)n1 [Compound I] |  |  |  |  |  | weak inhibitory effect | reduces the mortality

Reference: US8258295B2, “Triazine derivatives, compositions containing such derivatives, and methods of treatment of cancer and autoimmune diseases using such derivatives” (Prometic Biosciences Inc., priority 2007, dated 2012)
